According to patent US20230277569A1, “Compositions and Methods for Treating, Ameliorating and/or Preventing Cancer and Kits for the Same” (priority 2022, published 2023):
“Also recorded” adds a separate entry of the source.

System: beagle dogs
Assay: Toxicity in beagle dogs, IV infusion for 36 d
Assay type: in vivo
Experimental: Eighteen male and female (5-6 mo old) purebred beagle dogs (Cumberland, Va.) were acclimated for 47 d (20 to 26° C., relative humidity 30-70%, 10 or greater air changes/h, and a 12-h light/dark cycle) prior to study initiation. Animals were given water ad libitum and Certified Canine Diet #5007 (PMI Nutrition International Certified LabDiet®) for 4 to 5 h each day. At study initiation, animal body weights ranged from 8.6 to 11.5 kg for males and 6.0 to 9.4 kg for females. At least 1 week prior to initiation of dosing, animals were fasted overnight, anesthetized, and a catheter attached to a subcutaneous vascular access port was surgically implanted into a jugular vein. Animals were acclimated to infusion jackets prior to catheter implantation surgery. Animals were infused with sterile saline at a dose rate of 5 mL/h when the vascular access ports were accessed and when animals were connected to the infusion system (except when dosed with the test or vehicle control article). The patency of each catheter was checked as needed. Prednisolone tablets were administered orally at 2 mg/kg the night prior to dosing. Diphenhydramine (5 mg/kg; IM injection 0.1 mL/kg, 50 mg/mL) was administered prior to dosing and post the start of infusion (d 1 only). Male and female dogs received dose levels of Gamitrinib of 1.25, 3.33 and 6.25 mg/kg/dose formulated as indicated above during a 1 h infusion on d 1, 8, 11, 15, 18, 22, 25, 29, 32, and 36 at a volume of 2 mL/kg. The vehicle control was as above. […] Dosing was stopped, and 23 of 24 animals were administered additional diphenhydramine, 11 were administered Flunixin meglumine and buprenorphine, and 6 were administered acepromazine. Symptoms subsided in all animals after completion of these interventions. As a result of these observations, the polysorbate levels, which were increased from 0.025% (w/v) to 0.125% (w/v) to minimize precipitation, were returned to the original concentrations; 2 mg/kg prednisone was administered orally the night prior to dosing; and the diphenhydramine pretreatment dose was updated to 5 mg/kg 15 to 30 min prior to dosing. Detailed observations were conducted for each animal up to seven times during the predose phase, prior to dosing on d 1, 8, 15, 22, 29, and 36 of the dosing phase, and on d 1, 7, and 14 of the recovery phase. Blood samples (1 mL) were collected via the cephalic vein 5, 15, and 30 min and 1, 4, 8, and 24 h post the end of infusion on d 8 and 36 of the dosing phase. Formalin-fixed and paraffin-embedded tissue samples collected at the end of the study (d 39) were processed for histologic examination.

SMILES: CO[C@H]1/C=C\C=C(/C)C(=O)NC2=CC(=O)C(NCCCCCC[P+](c3ccccc3)(c3ccccc3)c3ccccc3)=C(C[C@@H](C)C[C@H](OC)[C@H](O)[C@@H](C)/C=C(\C)[C@@H]1OC(N)=O)C2=O [Gamitrinib, 17-Demethoxy-17-((6-(triphenylphosphonio)hexyl)amino)geldanamycin]
- NOAEL (beagle dogs, IV for 36 d): 3.33 mg/kg/dose
- highest non-severely toxic dose (HNSTD) (beagle dogs, IV for 36 d): 6.25 mg/kg/dose
- Bone marrow and liver parameters (dog, in vivo): unremarkable
- changes in organ weights (dog, in vivo): No Gamitrinib-related changes
- serum urea nitrogen and creatinine (dogs (both sexes), 6.25 mg/kg/dose, 6.25 mg/kg): trend of increased serum urea nitrogen and creatinine; also recorded: modest elevation of urea nitrogen and creatinine concentrations
- kidney microscopic finding (dogs, 6.25 mg/kg/dose, reversible during recovery): slight to moderate kidney tubular degeneration/regeneration
- alterations in body weight or other clinical observations (dogs, 1.25, 3.33 and 6.25 mg/kg/dose): no alterations
- Body weight (female dogs, 3.33 mg/kg, day 1): 7.6 ± 0.9 kg
- Body weight (female dogs, 3.33 mg/kg, day 8): 7.6 ± 0.9 kg
- Body weight (female dogs, 3.33 mg/kg, day 15): 7.6 ± 1.06 kg
- Body weight (female dogs, 3.33 mg/kg, day 22): 7.5 ± 0.75 kg
- Body weight (female dogs, 3.33 mg/kg, day 29): 7.6 ± 0.7 kg
- Body weight (female dogs, 3.33 mg/kg, day 36): 7.5 ± 0.8 kg
- Body weight (female dogs, 6.25 mg/kg, day 1): 7.7 ± 0.57 kg
- Body weight (female dogs, 6.25 mg/kg, day 8): 7.7 ± 0.62 kg
- Body weight (female dogs, 6.25 mg/kg, day 15): 7.4 ± 0.54 kg
- Body weight (female dogs, 6.25 mg/kg, day 22): 7.2 ± 0.6 kg
- Body weight (female dogs, 6.25 mg/kg, day 29): 7.3 ± 0.58 kg
- Body weight (female dogs, 6.25 mg/kg, day 36): 7.3 ± 0.59 kg
- Body weight (male dogs, 3.33 mg/kg, day 1): 10.1 ± 1.1 kg
- Body weight (male dogs, 3.33 mg/kg, day 8): 10 ± 1.04 kg
- Body weight (male dogs, 3.33 mg/kg, day 15): 9.9 ± 1.15 kg
- Body weight (male dogs, 3.33 mg/kg, day 22): 10.2 ± 1.21 kg
- Body weight (male dogs, 3.33 mg/kg, day 29): 10.1 ± 1.21 kg
- Body weight (male dogs, 3.33 mg/kg, day 36): 10 ± 1.36 kg
- Body weight (male dogs, 6.25 mg/kg, day 1): 9.9 ± 0.83 kg
- Body weight (male dogs, 6.25 mg/kg, day 8): 9.8 ± 0.85 kg
- Body weight (male dogs, 6.25 mg/kg, day 15): 9.5 ± 0.57 kg
- Body weight (male dogs, 6.25 mg/kg, day 22): 9.2 ± 0.57 kg
- Body weight (male dogs, 6.25 mg/kg, day 29): 9.2 ± 0.46 kg
- Body weight (male dogs, 6.25 mg/kg, day 36): 9.1 ± 0.58 kg
